Data as given in patent US20090317326A1, “RADIOFLUORINATION METHODS” (priority 2007, published 2009).
Read-outs that look alike come from different tables or passages of the source. Starred links: 1 amine or outer side, 2 acyl side, 3 side chain; linkers in the order of their positions; H or OH if unused. Non-standard residues stand in square brackets, D forms with d. Residues, ends and D or L forms follow the SMILES beside them. *: point of attachment. γ4hIle = CC[C@H](C)[C@@H](CCC(=O)[*:2])N[*:1]; Benzoyl(3-CN,4-F) = N#Cc1cc(C(=O)*)ccc1F; Ava = NCCCCC(=O)O

What was measured:
[1] = system: human prostate cancer PC-3; settings: mouse, in vivo
Procedure: (§1) Nude mice bearing human prostate cancer PC-3 were injected with 100 μl radioactive peptide dissolved in PBS containing 135 kBq per animal. For blocking 100 μg unlabeled gastrin-releasing peptide was co-injected. One hour post injection the animals were sacrificed and organs dissected for counting in a gamma-counter. Values are expressed as percent of the injected dose per gram organ weight.

[2] = system: human prostate cancer PC-3; experiment: Biodistribution of F-18 bombesin analogs in nude mice bearing human prostate cancer PC-3; settings: for Blocking: protocol as above (100 μg unlabeled gastrin-releasing peptide co-injected)
Procedure: as §1

tumor = settings: FIG. 5; versus tumor-tissue ratio of 18F-choline (FCH) and 18F-FB-Lys-BN
[3] = Biodistribution of F-18 bombesin analogs in nude mice bearing human prostate cancer PC-3; settings: nude, mouse, 135 kBq per animal, total radioactivity
Procedure: as §1

Compound	Panc. % ID/g [1] [% ID/g]	T/B [1]	T/M [1]	Blocking ([2]; Table 1)	tumor-tissue ratio relative to 18F-choline (FCH) and 18F-FB-Lys-BN (tumor) [time higher]	T/B ([2]; Table 1, tumor/blood ratio)	T/M ([2]; Table 1, tumor/muscle ratio)	specificity of targeting (blocking) ([2]; blocking values low in tumor, unchanged for the other tissue)	accumulation in tumor ([2]; conclusion from biodistribution, 1 h)	tissue uptake at 1 h ([3]; blood) [%ID/g]	tissue uptake at 1 h ([3]; kidneys) [%ID/g]	tissue uptake at 1 h ([3]; liver) [%ID/g]	tissue uptake at 1 h ([3]; muscle) [%ID/g]	tissue uptake at 1 h ([3]; pancreas) [%ID/g]	tissue uptake at 1 h ([3]; tumor) [%ID/g]	tissue to tissue ratio at 1 h ([3]; tumor/blood)	tissue to tissue ratio at 1 h ([3]; tumor/muscle)
3-CN,4-F-Benzoyl-Arg-Ava-Gln-Trp-Ala-Val-Gly-His(3Me)-Sta-Leu-NH2 (RXQWAVGHXL; non-natural residues)	4.16	5.65	13.84	30-90%	–	–	–	–	–	–	–	–	–	–	–	–	–
3-CF3,4-F-Benzoyl-Arg-Ava-Gln-Trp-Ala-Val-NMeGly-His-Sta-Leu-NH2 (RXQWAVGHXL; N-methyl; non-natural residues)	1.42	4.56	25.3	>70%	–	–	–	–	–	–	–	–	–	–	–	–	–
4F,3CN-Bnz-Arg-Ava-Gln-Trp-Ala-Val-NMeGly-His(3Me)-Sta-Leu-NH2 (RXQWAVGHXL; N-methyl; non-natural residues)	3.51	2.57	16.77	50-80%	–	–	–	–	–	–	–	–	–	–	–	–	–
CC[C@H](C)[C@@H](CCC(=O)N[C@@H](CC(C)C)C(N)=O)NC(=O)[C@H](Cc1c[nH]cn1)NC(=O)CNC(=O)[C@@H](NC(=O)[C@H](C)NC(=O)[C@H](Cc1c[nH]c2ccccc12)NC(=O)[C@H](CCC(N)=O)NC(=O)CCCCNC(=O)c1ccc(F)c(C#N)c1)C(C)C [3-CN,4-F-Bz-Ava-Gln-Trp-Ala-Val-Gly-His-FA01010-Leu-NH2] ({Benzoyl(3-CN,4-F)-Ava}-QWAVGH[γ4hIle]L-NH2)	–	–	–	>70%	2.5	21.03	59.99	specific	accumulates in tumor	0.05 ± 0.01	0.24 ± 0.02	0.35 ± 0.13	0.02	0.34 ± 0.03	1 ± 0.01	21 ± 11.9	60 ± 29.5
3-CN,4-F-Benzoyl-Arg-Ava-Gln-Trp-Ala-Val-NMeGly-His-Sta-Leu-NH2 (RXQWAVGHXL; N-methyl; non-natural residues)	1.3	6.82	12.75	40-70%	–	–	–	–	–	–	–	–	–	–	–	–	–
